Like-named read-outs stand apart in the source and are kept apart here.
How the values were obtained:
[1] = test system: L. infantum promastigotes (Strain MHOM/BR/70/BH46); experiment: Anti-promastigote effect, Neubauer chamber counting; format: cell-based, Leishmania infantum; conditions: 72 h incubation, read-out: L. infantum IC50PRO
Protocol: The promastigote cultures of L. infantum (Strain MHOM/BR/70/BH46) and L. amazonensis (Strain MHOM/BR/PH8) were kept in Schneider medium (Sigma-Aldrich, St. Louis, MO, USA) supplemented with 20% fetal bovine serum (FBS) and 1% streptomycin/penicillin in a B.O.D. incubator (J. Prolab, model JP. 100 LBCM/CPAM) at 26 °C. The promastigote strains were used in the exponential growth phase in all stages for experimental purposes.
The Neubauer chamber method was used to assess the inhibitory concentrations of the synthesized spiro-acridines capable of eliminating 50% of the promastigotes in cultures of L. amazonensis and L. infantum (IC50) strains. Promastigotes from both species were collected, counted, and diluted in Schneider’s medium (Sigma-Aldrich, St. Louis, MO, USA) supplemented with 20% fetal bovine serum (FBS) at a final concentration of 1 × 10^6 cells/mL. The evaluated promastigotes were then exposed to different concentrations of the tested compounds (10, 5, 2.5, 1.25, and 0.625 μg/mL). The positive control used the commercial drug Amphotericin B®, while the negative control consisted of promastigotes incubated in Schneider’s medium alone. After 72 h of incubation at 25 °C, culture growth was observed by counting the viable cells using a Neubauer chamber and calculated using the following Equation (1): No. Leishmania/mL = No. of cells counted × No. of Neubauer chamber(1) quadrants × the dilution used × 10^4 (Neubauer chamber correction factor)
The concentration parameter that inhibits 50% of parasite growth (IC50) was used to estimate the growth inhibition of the promastigote species of Leishmania sp. Thus, IC50 was determined by linear regression analysis with SPSS 8.0 software for Windows. Each test was performed in two independent experiments, with different cultures and in technical triplicate.

[2] = test system: L. amazonensis axenic amastigotes; experiment: Anti-amastigote effect on axenic amastigotes, MTT; format: cell-based, Leishmania amazonensis; conditions: L. amazonensis axenic amastigotes, 24 h, MTT
Protocol: The amastigote forms of L. amazonensis were maintained under cryopreservation until they were transferred to an NNN medium (Novy–MacNeal–Nicolle) and incubated at 26 °C until the parasites reached the log growth phase. Subsequently, the suspension was transferred to Schneider culture medium (Sigma-Aldrich, St. Louis, MO, USA), supplemented with 20% inactivated fetal bovine serum and 0.2% gentamicin sulfate at 26 °C, causing the parasites to return to the log growth phase. The cultures were then maintained at 37 °C, producing a growth curve and the formation of the axenic amastigote strains.
The concentrations of the compounds AMTAC-02 and ACMD-03 capable of eliminating 50% of the cells in the cultures of L. amazonensis amastigotes (IC50) were determined using the MTT [3-(4,5-dimethylthiazol-2-yl)-2,5-diphenyltetrazolium bromide] (Sigma-Aldrich) reagent. In a 96-well plate, the assay was initiated by diluting both compounds to concentrations of 2, 4, 8, 16, and 32 μg/mL and 2.0 × 10^5 axenic amastigotes per well. The plates were incubated at 37 °C for 24 h. Then, 10 μL of MTT was added per well, and the cultures were re-incubated for 4 h. Subsequently, 50 μL of dimethyl sulfoxide was added to each well to solubilize the formazan crystals formed. The absorbances were measured using a SpectraMAX GeminiXS plate spectrophotometer (Molecular Devices LLC) at a wavelength of 570 nm. The negative control consisted of untreated cells, while the positive control was assessed by incubating the axenic amastigotes with the reference drug Amphotericin B® [13].

J774A.1 macrophages = experiment: Cytotoxic effect in J774 macrophage cultures, MTT; format: cell-based; conditions: read-out: CC50 (50% cytotoxic concentration in J774 macrophage)
Protocol: J774A.1 macrophages (ATCC TIB-67) were kept cryopreserved in a Falcon tube containing 5 mL of DMEM (Dulbecco’s modified Eagle medium) culture medium (Gibco®), supplemented with 10% inactivated fetal bovine serum, 1% non-essential amino acids, and 1% gentamicin sulfate. The tube was centrifuged at 200 rpm for 10 min. Afterward, the supernatant was discarded, and the cells were resuspended in the culture medium and transferred to a culture bottle kept in an incubator at 37 °C with 5% CO2. The assays were carried out in triplicate using a 96-well plate to evaluate the cytotoxic effect of the selected spiro-acridine compounds on J774 macrophage cultures. The compounds were diluted and seeded at predetermined concentrations (32, 16, 8, 4, and 2 μg/mL), parallel to the distribution of 1.0 × 10^5 J774 macrophages per well. The plate was incubated for two hours in a 5% CO2 incubator at 37 °C. Only the cells were incubated in the negative control without the tested molecules. In contrast, the positive control was performed by incubating the macrophages with the commercial drug Amphotericin B®. Later, 10 μL of the MTT reagent was added per well, and the cultures were re-incubated for 4 h. Finally, 50 μL of DMSO was added to each well, and the absorbance was read on a SpectraMAX GeminiXS plate spectrophotometer (Molecular Devices LLC, San Jose, CA, USA) at a wavelength of 570 nm. […]

Row | Compound | IC50 [1] [µM] | IC50 [2] [µM] | CC50 (J774A.1 macrophages) [µM] | IC50 ([1]; Leishmania infantum) [µM] | IC50 ([2]; Leishmania amazonensis) [µM]
1 | N#CC1=CC2(c3ccccc3Nc3ccccc32)N(c2ccc(Cl)cc2)C1=O [ACMD-03, (E)1′-(4-chlorophenyl)-5′-oxo-1′, 5′-dihydro-10H-spiro{acridine-9,2′-pyrrole]-4′-carbonitrile] | 7.82 | 10.5 | 27.2 |  | 
2 | COc1ccc(/C=N/N2C(=O)C(C#N)=CC23c2ccccc2Nc2ccccc23)cc1 [AMTAC-02, (E)-1′-((4-methoxybenzylidene)amino)-5′-oxo-1′,5′-dihydro-10H-spiro[acridine-9,2′-pyrrole]-4′-carbonitrile] |  | 13.5 |  | 2.22 | 10.5 to 13.5

— publication PMC12195250, “Synthesis, Biological Evaluation, Molecular Dynamics, and QM-MM Calculation of Spiro-Acridine Derivatives Against Leishmaniasis” (Microorganisms, 2025)
